As usually defined, the IC50 is the concentration that gives 50% inhibition. Read a low IC50 as higher potency. In general, CC50 refers to the concentration at which the toxic effect on the cells reaches its halfway point.

The values below come from ChEMBL document CHEMBL5512690, “Identification and Validation of PKR as a Direct Target for the Novel Sulfonamide-Substituted Tetrahydroquinoline Nonselective Inhibitor of the NLRP3 Inflammasome” (J Med Chem, 2024).

For the first assay, the target named is NACHT, LRR and PYD domains-containing protein 3 (Homo sapiens, UniProt Q96P20).
Sequence of NACHT, LRR and PYD domains-containing protein 3 (Q96P20 whole entry, the tested form may be a part): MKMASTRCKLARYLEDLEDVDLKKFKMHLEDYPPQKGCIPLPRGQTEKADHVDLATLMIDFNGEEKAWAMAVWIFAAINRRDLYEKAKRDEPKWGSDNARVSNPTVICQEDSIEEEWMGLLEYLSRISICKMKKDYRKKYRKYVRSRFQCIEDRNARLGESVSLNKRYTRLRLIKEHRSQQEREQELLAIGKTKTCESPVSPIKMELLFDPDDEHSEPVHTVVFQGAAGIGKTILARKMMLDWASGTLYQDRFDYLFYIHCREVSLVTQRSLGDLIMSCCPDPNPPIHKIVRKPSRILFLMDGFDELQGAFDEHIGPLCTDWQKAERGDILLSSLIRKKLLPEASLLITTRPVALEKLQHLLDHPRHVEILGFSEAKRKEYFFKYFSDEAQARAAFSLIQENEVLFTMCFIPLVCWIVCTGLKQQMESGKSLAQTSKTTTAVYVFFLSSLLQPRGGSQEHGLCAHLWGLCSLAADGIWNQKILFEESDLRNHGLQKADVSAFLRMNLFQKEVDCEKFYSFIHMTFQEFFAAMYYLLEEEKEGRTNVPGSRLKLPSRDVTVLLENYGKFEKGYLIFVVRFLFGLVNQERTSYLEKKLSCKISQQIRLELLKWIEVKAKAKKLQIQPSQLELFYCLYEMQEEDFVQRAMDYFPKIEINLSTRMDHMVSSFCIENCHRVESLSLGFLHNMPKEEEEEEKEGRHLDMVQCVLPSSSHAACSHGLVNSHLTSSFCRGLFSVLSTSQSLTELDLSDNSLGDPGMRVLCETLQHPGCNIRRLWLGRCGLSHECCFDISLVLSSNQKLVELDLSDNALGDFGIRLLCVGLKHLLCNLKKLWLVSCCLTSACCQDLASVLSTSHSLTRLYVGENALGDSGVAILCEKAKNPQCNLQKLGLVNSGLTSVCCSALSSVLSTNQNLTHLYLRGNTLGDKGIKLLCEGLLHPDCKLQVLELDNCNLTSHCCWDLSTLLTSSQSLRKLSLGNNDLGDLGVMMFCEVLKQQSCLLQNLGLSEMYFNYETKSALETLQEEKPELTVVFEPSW
Description: Inhibition of NLRP3 inflammasome activation in LPS primed human differentiated THP-M cells derived PMA induced THP-1 cells assessed as inhibition of IL-1 beta level preincubated with compound for 24 hrs followed by LPS stimulation for 3 hrs and further incubated with ATP for 1 hr by ELISA method
Compound `O=C(O)c1ccc(/C=C2\SC(=S)N(Cc3cccc(C(F)(F)F)c3)C2=O)cc1` came in with an IC50 of 5.33 µM.

Test system in a further assay: not listed separately
The assay is described as follows: Cytotoxicity against human differentiated THP-M cells derived PMA induced THP-1 cells measured after 72 hrs by MTT assay. (Tetrazolium dyes change colour on reduction, which living cells bring about.)
Compound `O=C(O)c1ccc(/C=C2\SC(=S)N(Cc3cccc(C(F)(F)F)c3)C2=O)cc1` displayed a CC50 of over 100 µM.
Still for that read-out and setting: next, `CS(=O)(=O)N1CCCc2ccc(NS(=O)(=O)c3ccc(Br)cc3)cc21`: over 100 µM; `CS(=O)(=O)N1CCCc2ccc(NS(=O)(=O)c3cccs3)cc21`: over 100 µM.
Compound `CS(=O)(=O)N1CCCc2ccc(NS(=O)(=O)c3cccc4ccccc34)cc21` returned a CC50 of over 100 µM.
With `CS(=O)(=O)N1CCCc2ccc(NS(=O)(=O)c3ccccn3)cc21`, the CC50 is over 100 µM.
With `CS(=O)(=O)N1CCCc2ccc(NS(=O)(=O)c3ccc(C#N)cc3)cc21`, the CC50 was over 100 µM.
For `CC(=O)c1ccc(S(=O)(=O)Nc2ccc3c(c2)N(S(C)(=O)=O)CCC3)cc1`, the CC50 is over 100 µM.
For `CS(=O)(=O)N1CCCc2ccc(NS(=O)(=O)c3ccc4ccccc4c3)cc21`, the half-maximal cytotoxic concentration (CC50) is over 100 µM.
Regarding `CS(=O)(=O)N1CCCc2ccc(NS(=O)(=O)c3ccc(F)cc3)cc21`, the CC50 was over 100 µM.
In the case of `CS(=O)(=O)N1CCCc2ccc(NS(=O)(=O)c3ccccc3)cc21`, the CC50 was over 100 µM.
Consider `CS(=O)(=O)N1CCCc2ccc(NS(=O)(=O)c3cccc4cccnc34)cc21`, for which the CC50 is over 100 µM.
In the case of `CS(=O)(=O)N1CCCc2ccc(NS(=O)(=O)c3ccccc3[N+](=O)[O-])cc21`, the CC50 was over 100 µM.
Still for that read-out and setting: next, `CS(=O)(=O)Nc1ccc2c(c1)N(S(C)(=O)=O)CCC2`: over 100 µM.
As for `CS(=O)(=O)N1CCCc2ccc(NS(=O)(=O)c3ccc(C(F)(F)F)cc3)cc21`, the CC50 is over 100 µM.
`COC(=O)c1ccsc1S(=O)(=O)Nc1ccc2c(c1)N(S(C)(=O)=O)CCC2` showed a CC50 of over 100 µM.
`CS(=O)(=O)N1CCCc2ccc(NS(=O)(=O)c3ccc(Cl)cc3)cc21` gave a cytotoxic concentration (CC50) of over 100 µM.
In turn, `CS(=O)(=O)N1CCCc2ccc(NS(=O)(=O)c3cccc(F)c3)cc21` returned a CC50 of over 100 µM.
On to `CS(=O)(=O)N1CCCc2ccc(NS(=O)(=O)c3ccccc3F)cc21`, for which the CC50 was over 100 µM.
For the compound `CS(=O)(=O)N1CCCc2ccc(NS(=O)(=O)Cc3ccccc3)cc21`, the 50% cytotoxic concentration (CC50) was over 100 µM.
In turn, `CC(=O)Nc1ccc(S(=O)(=O)Nc2ccc3c(c2)N(S(C)(=O)=O)CCC3)cc1` showed a CC50 of over 100 µM.
The same measure, in the same setting: next, `COc1ccc(S(=O)(=O)Nc2ccc3c(c2)N(S(C)(=O)=O)CCC3)cc1`: over 100 µM; `CCCS(=O)(=O)Nc1ccc2c(c1)N(S(C)(=O)=O)CCC2`: over 100 µM; `CC(C)(C)c1ccc(S(=O)(=O)Nc2ccc3c(c2)N(S(C)(=O)=O)CCC3)cc1`: over 100 µM.
The same measure, in the same setting: the figure for `CCS(=O)(=O)Nc1ccc2c(c1)N(S(C)(=O)=O)CCC2` is over 100 µM; for `CS(=O)(=O)N1CCCc2ccc(NS(=O)(=O)c3ccc([N+](=O)[O-])cc3)cc21` it is over 100 µM.
`CCCCS(=O)(=O)Nc1ccc2c(c1)N(S(C)(=O)=O)CCC2` yielded a CC50 of over 100 µM.
`COC(=O)c1ccc(S(=O)(=O)Nc2ccc3c(c2)N(S(C)(=O)=O)CCC3)cc1`: the CC50 was over 100 µM.
As to `Cc1ccc(S(=O)(=O)Nc2ccc3c(c2)N(S(C)(=O)=O)CCC3)cc1`, the CC50 is over 100 µM.
As to `CS(=O)(=O)N1CCCc2ccc(NS(=O)(=O)c3cc(C(F)(F)F)cc(C(F)(F)F)c3)cc21`, the 50% cytotoxic concentration (CC50) is over 100 µM.
